According to patent US20240308968A1, “FUNGICIDAL SUBSTITUTED HETEROCYCLES” (FMC Corporation, priority 2021, published 2024):

What was measured:
Zymoseptoria tritici = assay: Test A: preventive spray on wheat seedlings, wheat leaf blotch disease rating; assay type: in vivo; conditions: 50 ppm, 100 = 100% disease control, 0 = no control; for pest or weed control at 50 ppm: Zymoseptoria tritici, 456 h
Outline: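 Compounds in acetone/water (50/50) with 50–250 ppm PEG400, sprayed to run-off on wheat seedlings. Inoculated next day with Z. tritici spores, 48 h saturated atmosphere at 24 °C, then 17 days at 20 °C before disease rating.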

Phakopsora pachyrhizi = assay: Test D: preventive spray on soybean seedlings, Asian soybean rust disease rating; assay type: in vivo; conditions: 50 ppm, 100 = 100% disease control, 0 = no control; for pest or weed control at 50 ppm: Phakopsora pachyrhizi, 216 h
Outline: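 Compounds in acetone/water (50/50) with 50–250 ppm PEG400 sprayed to run-off on soybean seedlings; inoculated next day with P. pachyrhizi spores, held 24 h saturated at 22° C, then 8 days at 22° C before visual disease rating.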

Alternaria solani = assay: Test F: preventive spray on tomato seedlings, tomato early blight disease rating; assay type: in vivo; conditions: 50 ppm, 100 = 100% disease control, 0 = no control; for pest or weed control at 50 ppm: Alternaria solani, 120 h
Outline: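 Tomato seedlings were sprayed to run-off with compound suspensions in ppm (acetone/water with PEG400 surfactant) and inoculated with Alternaria solani spores the next day. Plants were held 48 h saturated at 27 °C, then 3 days at 20 °C. Disease was rated visually, with 100 as full control and 0 as none, relative to controls.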

Botrytis cinerea = assay: Test E: preventive spray on tomato seedlings, tomato Botrytis disease rating; assay type: in vivo; conditions: 50 ppm, 100 = 100% disease control, 0 = no control; for pest or weed control at 50 ppm: Botrytis cinerea, 120 h
Outline: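 Tomato seedlings sprayed to run-off with compound suspended in acetone/water with PEG400 surfactant, then inoculated next day with Botrytis cinerea spores. Held 48 h saturated at 20 °C, then 3 days at 24 °C; disease rated visually, 0 to 100% control relative to controls.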

[1] = tested on: Blumeria graminis f. sp. Tritici; assay: Test C: preventive spray on wheat seedlings, wheat powdery mildew disease rating; assay type: in vivo; conditions: 50 ppm, 100 = 100% disease control, 0 = no control; for pest or weed control at 50 ppm: Blumeria graminis, 192 h
Outline: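 Wheat seedlings sprayed to run-off with test suspension (acetone 3% dissolution, then acetone/water 50/50 with 50–250 ppm PEG400), inoculated next day with Blumeria graminis spore dust. Held 8 days at 20° C in growth chamber, then visually rated (100 = full control, 0 = none, relative to controls).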

[2] = tested on: Puccinia recondita f. sp. Tritici; assay: Test B: preventive spray on wheat seedlings, wheat leaf rust disease rating; assay type: in vivo; conditions: 50 ppm, 100 = 100% disease control, 0 = no control; for pest or weed control at 50 ppm: Puccinia recondita, 192 h
Outline: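 Compounds in acetone/water (50/50) with 50-250 ppm PEG400 sprayed to run-off on wheat seedlings; inoculated with P. recondita spores next day. Held 24 h saturated at 20° C., then 7 days in growth chamber at 20° C. before rating; 100 = full control, 0 = none versus controls.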

Work on COc1cc(OC)cc(-n2nc(C)c(=O)c(C)c2-c2ccc(F)cc2F)c1 [Compound 29, 6-(2,4-difluorophenyl)-1-(3,5-dimethoxyphenyl)-3,5-dimethyl-4(1H)-pyridazinone] yielded a pest or weed control at 50 ppm (Zymoseptoria tritici) of 100%, a pest or weed control at 50 ppm (Phakopsora pachyrhizi) of 99% and a pest or weed control at 50 ppm (Alternaria solani) of 100%. The pest or weed control at 50 ppm (Botrytis cinerea) was 98%, the pest or weed control at 50 ppm [1] was 100% and the melting point was 124 to 127 °C. For the same compound, the pest or weed control at 50 ppm [2] was 100%.
For COc1cc(OC)c(Cl)c(-c2noc(=O)c(C)c2-c2ccc(F)cc2Cl)c1 [Compound 64, 3-(2-chloro-3,5-dimethoxyphenyl)-4-(2-chloro-4-fluorophenyl)-5-methyl-6H-1,2-oxazin-6-one], the pest or weed control at 50 ppm (Zymoseptoria tritici) was 97%, the pest or weed control at 50 ppm (Phakopsora pachyrhizi) was 99% and the pest or weed control at 50 ppm (Alternaria solani) was 99%. For the same compound, the pest or weed control at 50 ppm (Botrytis cinerea) was 91%, the pest or weed control at 50 ppm [1] was 98% and the melting point was 161 to 164 °C. The pest or weed control at 50 ppm [2] was 100%.
Compound COc1cc(OC)cc(-c2cc(C#N)c(=O)n(C)c2-c2c(F)cc(F)cc2F)c1 [Compound 67, 1,2-dihydro-5-(3,5-dimethoxyphenyl)-1-methyl-2-oxo-6-(2,4,6-trifluorophenyl)-3-pyridinecarbonitrile] has a pest or weed control at 50 ppm (Zymoseptoria tritici) of 100%, a pest or weed control at 50 ppm (Phakopsora pachyrhizi) of 92% and a pest or weed control at 50 ppm (Alternaria solani) of 98%. The pest or weed control at 50 ppm (Botrytis cinerea) was 98%, the pest or weed control at 50 ppm [1] was 84% and the melting point was 180 to 183 °C. For the same compound, the pest or weed control at 50 ppm [2] was 100%.
With COc1cc(OC)c(Cl)c(-c2cc(C#N)c(=O)n(C)c2-c2c(F)cc(F)cc2F)c1 [Compound 68, 5-(2-chloro-3,5-dimethoxyphenyl)-1,2-dihydro-1-methyl-2-oxo-6-(2,4,6-trifluorophenyl)-3-pyridinecarbonitrile] the pest or weed control at 50 ppm (Zymoseptoria tritici) was 100%, the pest or weed control at 50 ppm (Phakopsora pachyrhizi) was 100% and the pest or weed control at 50 ppm (Alternaria solani) was 99%. The pest or weed control at 50 ppm (Botrytis cinerea) was 93%, the pest or weed control at 50 ppm [1] was 99% and the melting point was 159 to 162 °C. It also gave a pest or weed control at 50 ppm [2] of 100%.
With CCn1c(-c2c(F)cc(F)cc2F)c(-c2cc(OC)cc(OC)c2)cc(C#N)c1=O [Compound 69, 1,2-dihydro-5-(3,5-dimethoxyphenyl)-1-ethyl-2-oxo-6-(2,4,6-trifluorophenyl)-3-pyridinecarbonitrile] the pest or weed control at 50 ppm (Zymoseptoria tritici) was 100%, the pest or weed control at 50 ppm (Phakopsora pachyrhizi) was 86% and the pest or weed control at 50 ppm (Alternaria solani) was 99%. The pest or weed control at 50 ppm (Botrytis cinerea) was 93%, the pest or weed control at 50 ppm [1] was 99% and the melting point was 185 to 187 °C. For the same compound, the pest or weed control at 50 ppm [2] was 100%.
Work on CCn1c(-c2c(F)cc(F)cc2F)c(-c2cc(OC)cc(OC)c2Cl)cc(C#N)c1=O [Compound 70, 5-(2-chloro-3,5-dimethoxyphenyl)-1,2-dihydro-1-ethyl-2-oxo-6-(2,4,6-trifluorophenyl)-3-pyridinecarbonitrile] yielded a pest or weed control at 50 ppm (Zymoseptoria tritici) of 100%, a pest or weed control at 50 ppm (Phakopsora pachyrhizi) of 100% and a pest or weed control at 50 ppm (Alternaria solani) of 98%. The pest or weed control at 50 ppm (Botrytis cinerea) was 96%, the pest or weed control at 50 ppm [1] was 99% and the melting point was 171 to 173 °C. It also gave a pest or weed control at 50 ppm [2] of 100%.
Compound COc1cc(OC)c(Cl)c(-n2nc(Cl)c(=O)c(C)c2-c2ccc(F)cc2Cl)c1 [Compound 92, 3-chloro-6-(2-chloro-4-fluorophenyl)-1-(2-chloro-3,5-dimethoxyphenyl)-5-methyl-4(1H)-pyridazinone] has a pest or weed control at 50 ppm (Zymoseptoria tritici) of 100%, a pest or weed control at 50 ppm (Phakopsora pachyrhizi) of 100% and a pest or weed control at 50 ppm (Alternaria solani) of 99%. For the same compound, the pest or weed control at 50 ppm (Botrytis cinerea) was 96%, the pest or weed control at 50 ppm [1] was 99% and the melting point was 192 to 195 °C. The pest or weed control at 50 ppm [2] was 100%.
With COc1cc(OC)c(Cl)c(-n2nc(Br)c(=O)c(C)c2-c2ccc(F)cc2Cl)c1 [Compound 94, 3-bromo-6-(2-chloro-4-fluorophenyl)-1-(2-chloro-3,5-dimethoxyphenyl)-5-methyl-4(1H)-pyridazinone] the pest or weed control at 50 ppm (Zymoseptoria tritici) was 100%, the pest or weed control at 50 ppm (Phakopsora pachyrhizi) was 100% and the pest or weed control at 50 ppm (Alternaria solani) was 100%. The pest or weed control at 50 ppm (Botrytis cinerea) was 98%, the pest or weed control at 50 ppm [1] was 100% and the melting point was 191 to 194 °C. The pest or weed control at 50 ppm [2] was 100%.
With COc1cc(OC)cc(-n2nc(C)c(=O)c(C)c2-c2ccc(F)cc2Cl)c1 [Compound 97, 6-(2-chloro-4-fluorophenyl)-3,5-dimethyl-1-(3,5-dimethoxyphenyl)-4(1H)-pyridazinone] the pest or weed control at 50 ppm (Zymoseptoria tritici) was 100%, the pest or weed control at 50 ppm (Phakopsora pachyrhizi) was 100% and the pest or weed control at 50 ppm (Alternaria solani) was 100%. It also gave a pest or weed control at 50 ppm (Botrytis cinerea) of 96%, a pest or weed control at 50 ppm [1] of 99% and a melting point of 148 to 151 °C. The pest or weed control at 50 ppm [2] was 100%.
In the case of COc1ccc(-c2c(Cl)c(=O)c(C)nn2-c2cc(OC)ccc2Cl)c(Cl)c1 [Compound 129], the “Test A disease control rating” value (Zymoseptoria tritici) is reported as 100%, the “Test D disease control rating” value (Phakopsora pachyrhizi) is reported as 99% and the “Test F disease control rating” value (Alternaria solani) is reported as 100%. The “Test E disease control rating” value (Botrytis cinerea) was 98%, the “Test C disease control rating” value [1] was 99% and the “Test B disease control rating” value [2] was 100%.
In the case of COc1ccc(-c2c(Br)c(=O)c(C)nn2-c2cc(OC)ccc2Cl)c(Cl)c1 [Compound 130], the “Test A disease control rating” value (Zymoseptoria tritici) is reported as 100%, the “Test D disease control rating” value (Phakopsora pachyrhizi) is reported as 98% and the “Test F disease control rating” value (Alternaria solani) is reported as 100%. The “Test E disease control rating” value (Botrytis cinerea) was 99%, the “Test C disease control rating” value [1] was 99% and the “Test B disease control rating” value [2] was 100%.
With COc1ccc(Cl)c(-n2nc(Cl)c(=O)c(Br)c2-c2ccc(F)cc2Cl)c1 [Compound 134] the “Test A disease control rating” value (Zymoseptoria tritici) was 100%, the “Test D disease control rating” value (Phakopsora pachyrhizi) was 100% and the “Test F disease control rating” value (Alternaria solani) was 99%. The “Test E disease control rating” value (Botrytis cinerea) was 99%, the “Test C disease control rating” value [1] was 86% and the “Test B disease control rating” value [2] was 100%.
With COc1ccc(Cl)c(-n2nc(NC(C)=O)c(=O)cc2-c2ccc(F)cc2Cl)c1 [Compound 135] the “Test A disease control rating” value (Zymoseptoria tritici) was 41%, the “Test D disease control rating” value (Phakopsora pachyrhizi) was 0% and the “Test F disease control rating” value (Alternaria solani) was 0%. For the same compound, the “Test E disease control rating” value (Botrytis cinerea) was 94%, the “Test C disease control rating” value [1] was 0% and the “Test B disease control rating” value [2] was 89%.
With COc1ccc(Cl)c(-n2nc(Br)c(=O)cc2-c2ccc(F)cc2Cl)c1 [Compound 136] the “Test A disease control rating” value (Zymoseptoria tritici) was 82%, the “Test D disease control rating” value (Phakopsora pachyrhizi) was 0% and the “Test F disease control rating” value (Alternaria solani) was 0%. The “Test E disease control rating” value (Botrytis cinerea) was 99%, the “Test C disease control rating” value [1] was 68% and the “Test B disease control rating” value [2] was 99%.
Compound COc1ccc(Cl)c(-c2cc(C)nc(C)c2-c2ccc(F)cc2Cl)c1 [Compound 138, 3-(2-chloro-4-fluorophenyl)-4-(2-chloro-5-methoxyphenyl)-2,6-dimethylpyridine] has a melting point of 106 to 108 °C.
In the case of COc1cc(OC)cc(-c2cc(C#N)c(=O)n(N)c2-c2c(F)cc(F)cc2F)c1 [Compound 153], the “Test A disease control rating” value (Zymoseptoria tritici) is reported as 0%, the “Test D disease control rating” value (Phakopsora pachyrhizi) is reported as 0% and the “Test F disease control rating” value (Alternaria solani) is reported as 0%. The “Test E disease control rating” value (Botrytis cinerea) was 0%, the “Test C disease control rating” value [1] was 0% and the “Test B disease control rating” value [2] was 80%.
With COc1ccc(Cl)c(-c2cc(C#N)c(=O)n(C)c2-c2ccc(F)cc2Cl)c1 [Compound 154] the “Test A disease control rating” value (Zymoseptoria tritici) was 100%, the “Test D disease control rating” value (Phakopsora pachyrhizi) was 59% and the “Test F disease control rating” value (Alternaria solani) was 0%. The “Test E disease control rating” value (Botrytis cinerea) was 98%, the “Test C disease control rating” value [1] was 35% and the “Test B disease control rating” value [2] was 98%.
In the case of CCn1c(-c2ccc(F)cc2Cl)c(-c2cc(OC)cc(OC)c2)cc(C#N)c1=O [Compound 155], the “Test A disease control rating” value (Zymoseptoria tritici) is reported as 8%, the “Test D disease control rating” value (Phakopsora pachyrhizi) is reported as 0% and the “Test F disease control rating” value (Alternaria solani) is reported as 0%. The “Test E disease control rating” value (Botrytis cinerea) was 92%, the “Test C disease control rating” value [1] was 0% and the “Test B disease control rating” value [2] was 89%.
For COc1cc(OC)cc(-c2cc(C#N)c(=O)n(C)c2-c2ccc(F)cc2Cl)c1 [Compound 158], the “Test A disease control rating” value (Zymoseptoria tritici) was 0%, the “Test D disease control rating” value (Phakopsora pachyrhizi) was 0% and the “Test F disease control rating” value (Alternaria solani) was 0%. For the same compound, the “Test E disease control rating” value (Botrytis cinerea) was 40%, the “Test C disease control rating” value [1] was 0% and the “Test B disease control rating” value [2] was 68%.
With CCn1c(-c2ccc(F)cc2Cl)c(-c2cc(OC)ccc2Cl)cc(C#N)c1=O [Compound 159] the “Test A disease control rating” value (Zymoseptoria tritici) was 100%, the “Test D disease control rating” value (Phakopsora pachyrhizi) was 77% and the “Test F disease control rating” value (Alternaria solani) was 94%. The “Test E disease control rating” value (Botrytis cinerea) was 99%, the “Test C disease control rating” value [1] was 27% and the “Test B disease control rating” value [2] was 100%.
